# Measurements: patent publication US5750405A, “Method for the detection for protein” (priority 1996, dated 1998)
# Key:
# [1] = biological target: human serum albumin (HSA) (Homo sapiens, UniProt P02768); assay: DIDNTB reagent strip protein response, Example I, HSA; conditions: for protein response: Example I, 6 mM of substituted alkane; for % change in response, HSA 30 mg/dL: additive 6 mM, vs control formula lacking additive, negative = loss of protein response
# Excerpt: (§1) The DIDNTB protein reagent was made from two saturations of Alhstrom 204 filter paper in which the first saturation was made with an aqueous ethanol mix containing tartaric acid as buffer and methyl red as background dye. The pH was adjusted to 2.1. The second saturation was with a toluene/tetrahydrofuran mix containing the DIDNTB indicator dye and Lutanol M40 (a polyvinylmethylether) as a color enhancer polymer.
# (§2) The mix solutions were used to saturate the filter paper and the paper was dried at 105° C. for 7 minutes after each saturation. The resultant dry reagents were processed into reagent strips which were tested on a Clinitek-200+ reflectance spectrophotometer from Bayer Diagnostics after dipping into urine containing 0 or 30 mg/dL human serum albumin or 40 mg/dL of another urinary protein. The particulars of each dip solution are set out in Table 3.
# Prior to the addition of HSA, the urine sample was filtered through an ultrafiltration membrane having a 10 KDa (kilodalton) molecular weight cut-off to remove naturally occurring proteins. The total protein in the urine sample was determined using an immunological HSA assay and the Coomassie Brilliant Blue (CBB) method described by Perini et al as cited above to screen over 175 clinical samples to provide specimens lacking albumin but containing other urine protein. […] These urines were pooled and diluted with negative urine to 40 mg/dL by the CBB method and less than 1.2 mg/dL by immunological HSA assay. The reagent response was measured on the […]-200+ instrument as the result of 1000×% Reflectance @ 610 nm/% reflectance @ 690 nm. The difference between negative and protein containing urines was taken as the protein response. The data generated by this experiment are set out in Table 1 in which the protein response of control formula lacking polymer or substituted alkane additive is compared to the formulas containing polymer or alkane to determine the % change in response. Negative numbers indicate greater loss of protein response.
# The HSA response in the presence of these additives was compared to the response for other urinary proteins such as Tamm Horsefall glycoprotein, Bence-Jones protein, α-1-microglobin, hemoglobin and various low molecular weight protein fragments. The additives were used at a 0.1% (w/w) concentration to allow a measurable HSA response in all cases. The 0.1% concentration amounts to […] concentration of additive and is in excess of the 4.4 μM concentration of the proteins tested.
# Urinary proteins = assay: DIDNTB reagent strip protein response, Example I, other urinary proteins; format: binding; conditions: additive 6 mM; vs control formula lacking additive; negative = loss of protein response
# Excerpt: as §1, §2
# Prior to the addition of HSA, the urine sample was filtered through an ultrafiltration membrane having a 10 KDa (kilodalton) molecular weight cut-off to remove naturally occurring proteins. The total protein in the urine sample was determined using an immunological HSA assay and the Coomassie Brilliant Blue (CBB) method described by Perini et al as cited above to screen over 175 clinical samples to provide specimens lacking albumin but containing other urine protein. […] These urines were pooled and diluted with negative urine to 40 mg/dL by the CBB method and less than 1.2 mg/dL by immunological HSA assay. The reagent response was measured on the […]-200+ instrument as the result of 1000×% Reflectance @ 610 nm/% reflectance @ 690 nm. The difference between negative and protein containing urines was taken as the protein response. The data generated by this experiment are set out in Table 1 in which the protein response of control formula lacking polymer or substituted alkane additive is compared to the formulas containing polymer or alkane to determine the % change in response. Negative numbers indicate greater loss of protein response. […]
# albumin [2] = conditions: cited from earlier work
# albumin [3] = conditions: Coomassie Brilliant Blue; cited from earlier work
# human serum albumin (HSA), sequence (P02768 25-609): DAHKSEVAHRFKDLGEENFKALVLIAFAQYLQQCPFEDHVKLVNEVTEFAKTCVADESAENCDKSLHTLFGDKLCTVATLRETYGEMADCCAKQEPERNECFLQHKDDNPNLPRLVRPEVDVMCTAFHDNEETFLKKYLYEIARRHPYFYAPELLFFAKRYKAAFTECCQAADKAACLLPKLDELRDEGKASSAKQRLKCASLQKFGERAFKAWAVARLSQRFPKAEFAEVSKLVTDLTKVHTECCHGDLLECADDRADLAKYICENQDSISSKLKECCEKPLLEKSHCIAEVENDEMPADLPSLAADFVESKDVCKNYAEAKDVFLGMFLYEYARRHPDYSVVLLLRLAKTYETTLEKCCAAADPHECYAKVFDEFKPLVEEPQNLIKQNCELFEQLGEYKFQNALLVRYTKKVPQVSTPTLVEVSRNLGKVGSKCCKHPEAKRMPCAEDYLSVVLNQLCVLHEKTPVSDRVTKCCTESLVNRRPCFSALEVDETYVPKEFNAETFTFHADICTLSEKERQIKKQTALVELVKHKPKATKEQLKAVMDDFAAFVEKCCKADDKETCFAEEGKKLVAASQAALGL
protein response [1],"% change in response, HSA 30 mg/dL [1] [%]",Structure (SMILES),"% change in response, Urinary proteins 40 mg/dL (Urinary proteins) [%]",effect on the binding of phenol red to albumin (albumin [2]),specificity of the test for albumin (albumin [3])
did not affect the protein response,7,CCCCCCCCCC(=O)O [Decanoic acid],2,,
did not affect the protein response,3,CCCCCCCCCCO [Decanol],8,,
,,CCCCCCCCCCCCCCCC(=O)O [Hexadecanoic acid],1,,
,,"CCCCCCCCCCCCCCCC(=O)O [Palmitate, palmitic acid]",,modest inhibitory effects,
,,CCCCCCCCCCCCOS(=O)(=O)[O-].[Na+] [sodium dodecyl sulfate],,,decreased the specificity
